Measured values as given in ChEMBL document CHEMBL1143920, “Meclonazepam analogues as potential new antihelmintic agents” (Bioorg Med Chem Lett, 2008).
In brackets after ≈: the same amount, converted by molar mass.

What follows are compounds tested on Schistosoma mansoni (assay: Anthelmintic activity against Schistosoma mansoni).
Format: functional, organism-based

Question: How did the IC50 turn out when `CC1N=C(c2ccccc2Cl)c2c(/N=N/c3ccc(O)cc3)cccc2NC1=O` (centres undefined) was run?
Answer: > 10 µg/mL

Question: `CC1N=C(c2ccccc2Cl)c2c(/N=N/c3c(F)cc(O)cc3F)cccc2NC1=O` (centres undefined) was tested. Which IC50 did it give?
Answer: 3.8 µg/mL (≈ 8.62 µM)

Question: With `CC1N=C(c2ccccc2Cl)c2cc([N+](=O)[O-])ccc2NC1=S` (centres undefined) as the compound, how does the IC50 read?
Answer: 0.35 µg/mL (≈ 1.01 µM)

Question: Which IC50 does the source give for `CC1N=C(c2ccccc2Cl)c2cc(N)ccc2NC1=O` (centres undefined) here?
Answer: > 10 µg/mL

Question: With `CCc1cc(/N=N/c2cccc3c2C(c2ccccc2Cl)=NC(C)C(=O)N3)ccc1O` (centres undefined) as the compound, how does the IC50 read?
Answer: 5.79 µg/mL (≈ 13.4 µM)

Question: How did the IC50 turn out when `C[C@@H]1N=C(c2ccccc2Cl)c2cc([N+](=O)[O-])ccc2NC1=O` [MECLONAZEPAM] was run?
Answer: 0.37 µg/mL (≈ 1.12 µM)

Question: Which IC50 does the source give for `CC1N=C(c2ccccc2Cl)c2c(/N=N/c3c(Cl)cc(O)cc3Cl)cccc2NC1=O` (centres undefined) here?
Answer: 5.79 µg/mL (≈ 12.2 µM)

Question: How did the IC50 turn out when `CC1N=C(c2ccccc2Cl)c2c(/N=N\c3ccc(O)c4ccccc34)cccc2NC1=O` (centres undefined) was run?
Answer: 9.1 µg/mL (≈ 20 µM)

Question: `Cc1cc(C)c(O)c(/N=N/c2cccc3c2C(c2ccccc2Cl)=NC(C)C(=O)N3)c1` (centres undefined) was tested. Which IC50 did it give?
Answer: > 10 µg/mL

Question: For `CC1NC(c2ccccc2Cl)c2cc([N+](=O)[O-])ccc2NC1=O` (centres undefined), which IC50 is on record?
Answer: 1.3 µg/mL (≈ 3.92 µM)

Question: For `CC1N=C(c2ccccc2Cl)c2c(/N=N\c3c(O)ccc4ccccc34)cccc2NC1=O` (centres undefined), which IC50 is on record?
Answer: > 10 µg/mL

Question: For `CC1N=C(c2ccccc2Cl)c2c(/N=N/c3ccc(O)c(C(C)C)c3)cccc2NC1=O` (centres undefined), which IC50 is on record?
Answer: 5.79 µg/mL (≈ 13 µM)

Question: Which IC50 does the source give for `CC1N=C(c2ccccc2Cl)c2c(/N=N/c3ccc(O)cc3Br)cccc2NC1=O` (centres undefined) here?
Answer: 10 µg/mL (≈ 20.7 µM)

Question: Which IC50 does the source give for `CC1NC(c2ccccc2Cl)c2cc([N+](=O)[O-])ccc2NC1=S` (centres undefined) here?
Answer: 4.75 µg/mL (≈ 13.7 µM)
